Experimental data from patent US20070244007A1, “Cis-Alkoxyspiro-Substituted Tetramic Acid Derivatives” (BAYER CROPSCIENCE AG, priority 2004, published 2007).

What was measured:
Format in all cases: in vivo
Summer wheat = assay: Container trials with cereals outdoors, post-emergence, Mefenpyr in tank mix; conditions: 120 g of a.i./ha, without safener
Protocol: (§1) 1. Herbicidal Post-Emergence Action
(§2) Seeds of monocotyledonous and dicotyledonous weed and crop plants are placed in sandy loam in wood fibre pots or in plastic pots, covered with soil and cultivated in a greenhouse, during the vegetation period also outdoors outside of the greenhouse, under good growth conditions. 2-3 weeks after sowing, the test plants are treated at the one- to three-leaf stage. The test compounds, formulated as wettable powders (WP) or emulsifiable concentrates (EC) are, in various dosages with a water application rate of 300 l/ha (converted), with wetting agent (0.2 to 0.3%) added, sprayed onto the plants and the surface of the soil. 3-4 weeks after the treatment of the test plants, the effect of the preparations is rated visually in comparison to untreated controls (herbicidal effect in per cent (%): 100% effect=the plants have died, 0% effect=like control plants).
(§3) If it is additionally to be tested whether safeners can improve the plant compatibility of test substances in the case of crop plants, the following options are used for applying the safener: • seeds of the crop plants are, before sowing, dressed with the safener substance (the amount of safener is stated in per cent, based on the weight of the seed) • before the application of the test substances, the crop plants are sprayed with the safener at a certain application rate per hectar (usually 1 day before the application of the test substances) • the safener is applied together with the test substance as a tank mix (the amount of safener is stated in g/ha or as a ratio, based on the herbicide).
(§4) By comparing the effect of test substances on crop plants with or without safener treatment, it is possible to assess the effect of the safener substance.
(§5) Container Trials with Cereals Outdoors (Outside the Greenhouse/“Bird Cage”) Mefenpyr in Tank Mix

Summer barley [1] = assay: as above; conditions: 120 g of a.i./ha, without safener
Protocol: as §1, §2, §3, §4, §5

Summer barley [2] = assay: Container trials with cereals in the greenhouse, post-emergence, Mefenpyr applied 1 day prior to herbicide; conditions: 50 g of a.i./ha, without safener
Protocol: as §1
as §2, with “plants). […]” for “plants).”

Meloidogyne incognita = assay: Meloidogyne Test (nematicidal action, gall formation on lettuce roots); conditions: 20 ppm active compound; 100% = no galls
Protocol: To produce a suitable preparation of active compound, 1 part by weight of active compound is mixed with the stated amounts of solvent and emulsifier, and the concentrate is diluted with water to the desired concentration.
Vessels are filled with sand, solution of active compound, Meloidogyne incognita egg/larvae suspension and lettuce seeds. The lettuce seeds germinate and the plants develop. On the roots, the galls develop.
After the desired period of time, the nematicidal action is determined in % by the formation of galls. 100% means that no galls have been found; 0% means that the number of galls on the treated plants corresponds to that of the untreated control.

Sugar-beets [3] = assay: Herbicidal post-emergence action, greenhouse; conditions: 320 g a.i./ha, about 3 weeks
Protocol: (§6) 2. Herbicidal Post-Emergence Action
(§7) Seeds of monocotyledonous and dicotyledonous weed and crop plants are placed into sandy loam in wood fibre pots, covered with soil and cultivated in a greenhouse under good growth conditions. 2-3 weeks after sowing, the test plants are treated at the one-leaf stage. The test compounds, formulated as wettable powders (WP), are, in various dosages with a water application rate of 600 l/ha (converted), with 0.2% of wetting agent added, sprayed onto the green parts of the plants. After the test plants were kept in the greenhouse under optimum growth conditions for about 3 weeks, the effect of the preparations is rated visually in comparison to untreated controls (herbicidal effect in per cent (%): 100% effect=the plants have died, 0% effect=like control plants).

Avena [4] = assay: Herbicidal post-emergence action, greenhouse; conditions: 320 g a.i./ha, about 3 weeks
Protocol: as §6, §7

Lolium [5] = assay: Herbicidal post-emergence action, greenhouse; conditions: 320 g a.i./ha, about 3 weeks
Protocol: as §6, §7

Agropyron [6] = assay: Herbicidal post-emergence action, greenhouse; conditions: 320 g a.i./ha, about 3 weeks
Protocol: as §6, §7

Setaria [7] = assay: Herbicidal post-emergence action, greenhouse; conditions: 320 g a.i./ha, about 3 weeks
Protocol: as §6, §7

Alopecurus [8] = assay: Herbicidal post-emergence action, greenhouse; conditions: 320 g a.i./ha, about 3 weeks
Protocol: as §6, §7

[9] = test system: larvae of the mustard beetle (Phaedon cochleariae); assay: Phaedon Test (spray treatment); conditions: 100 g/ha, Chinese cabbage discs
Protocol: [[[…]]] To produce a suitable preparation of active compound, 1 part by weight of active compound is mixed with the stated amounts of solvents and emulsifier, and the concentrate is diluted with emulsifier-containing water to the desired concentration. Discs of Chinese cabbage (Brassica pekinensis) are sprayed with a preparation of active compound of the desired concentration and, after they have dried, populated with larvae of the mustard beetle (Phaedon cochleariae).

Sugar-beets [10] = assay: Herbicidal pre-emergence action, greenhouse; conditions: 320 g a.i./ha, 3 weeks
Description: (§8) 1. Herbicidal Pre-Emergence Action
(§9) Seeds of monocotyledonous and dicotyledonous weed and crop plants are placed into sandy loam in wood fibre pots and covered with soil. The test compounds, formulated in the form of wettable powders (WP), are then, in various dosages as aqueous suspension with a water application rate of 600 l/ha (converted), with 0.2% of wetting agent added, applied to the surface of the covering soil.
(§10) After the treatment, the pots are placed in a greenhouse and kept under good growth conditions for the test plants. The visual assessment of the emergence damage on the test plants is carried out after a trial period of 3 weeks by comparison with untreated plants (herbicidal effect in per cent (%): 100% effect=the plants have died, 0% effect=like control plants).

Avena [11] = assay: Herbicidal pre-emergence action, greenhouse; conditions: 320 g a.i./ha, 3 weeks
Description: as §8, §9, §10

Lolium [12] = assay: Herbicidal pre-emergence action, greenhouse; conditions: 320 g a.i./ha, 3 weeks
Description: as §8, §9, §10

Agropyron [13] = assay: Herbicidal pre-emergence action, greenhouse; conditions: 320 g a.i./ha, 3 weeks
Description: as §8, §9, §10

Setaria [14] = assay: Herbicidal pre-emergence action, greenhouse; conditions: 320 g a.i./ha, 3 weeks
Description: as §8, §9, §10

Alopecurus [15] = assay: Herbicidal pre-emergence action, greenhouse; conditions: 320 g a.i./ha, 3 weeks
Description: as §8, §9, §10

[16] = test system: greenhouse red spider mite (Tetranychus urticae); assay: Tetranychus Test (OP-resistant/spray treatment); conditions: 100 g/ha; bean leaf discs, spray, OP-resistant
Protocol: (§11) To produce a suitable preparation of active compound, 1 part by weight of active compound is mixed with the stated amounts of solvents and emulsifier, and the concentrate is diluted with emulsifier-containing water to the desired concentration.
Discs of bean leaves (Phaseolus vulgaris) which are infested by all stages of the greenhouse red spider mite (Tetranychus urticae) are sprayed with a preparation of active compound of the desired concentration.
After the desired period of time, the activity in % is determined. 100% means that all spider mites have been killed; 0% means that none of the spider mites have been killed.

[17] = test system: green peach aphid (Myzus persicae); assay: Myzus Test (spray treatment); conditions: 100 g/ha, Chinese cabbage discs
Protocol: as §11
Discs of Chinese cabbage (Brassica pekinensis) which are infested by all stages of the green peach aphid (Myzus persicae) are sprayed with a preparation of active compound of the desired concentration.
After the desired period of time, the activity in % is determined. 100% means that all aphids have been killed; 0% means that none of the aphids have been killed.

| SMILES | Summer wheat observed (%) (Summer wheat) | Summer barley observed (%) (Summer barley [1]) | Summer barley observed (%) (Summer barley [2]) | Effect in % after 14d (Meloidogyne incognita) [%] | herbicidal effect, Sugar-beets (Sugar-beets [3]) [%] | herbicidal effect, Avena (Avena [4]) [%] | herbicidal effect, Lolium (Lolium [5]) [%] | herbicidal effect, Agropyron (Agropyron [6]) [%] | herbicidal effect, Setaria (Setaria [7]) [%] | herbicidal effect, Alopecurus (Alopecurus [8]) [%] | Kill rate in % after 7d [9] [%] | herbicidal effect, Sugar-beets (Sugar-beets [10]) [%] | herbicidal effect, Avena (Avena [11]) [%] | herbicidal effect, Lolium (Lolium [12]) [%] | herbicidal effect, Agropyron (Agropyron [13]) [%] | herbicidal effect, Setaria (Setaria [14]) [%] | herbicidal effect, Alopecurus (Alopecurus [15]) [%] | Kill rate in % after 5d [16] [%] | Kill rate in % after 5d [17] [%] |
| --- | --- | --- | --- | --- | --- | --- | --- | --- | --- | --- | --- | --- | --- | --- | --- | --- | --- | --- | --- |
| CCc1cc(Br)cc(C)c1C1=C(O)[C@]2(CC[C@H](OC)CC2)NC1=O [Ex. I-a-1] | 30 | 35 | – | – | – | – | – | – | – | – | – | – | – | – | – | – | – | – | – |
| CCc1cc(Br)cc(CC)c1C1=C(OC(=O)COC)[C@]2(CC[C@H](OC)CC2)NC1=O [Ex. I-b-1] | – | – | 50 | – | – | – | – | – | – | – | – | – | – | – | – | – | – | – | – |
| CCOC(=O)OC1=C(c2c(C)cc(Br)cc2CC)C(=O)N[C@]12CC[C@@H](OC)CC2 [Ex. I-c-1] | 20 | 35 | – | 90 | 0 | 100 | 100 | 100 | 100 | 100 | 83 | 0 | 97 | 100 | 100 | 100 | 100 | 70 | 90 |
